# Laboratory results: ChEMBL document CHEMBL3044736, “Synthesis, characterization, solvatochromic properties, and antimicrobial evaluation of 5-acetyl-2-thioxo-dihydro-pyrimidine-4,6-dione-based chalcones” (2013)
# Tests used:
# Format in all cases: functional
# Pseudomonas aeruginosa [1] = assay: Antimicrobial activity against Pseudomonas aeruginosa MTCC 1688 assessed as diameter of growth inhibition zone at 25 ug/ml after 18-24 hr by agar cup diffusion method; details: read-out: DIZ
# Trichophyton rubrum [2] = assay: Antimicrobial activity against Trichophyton rubrum MTCC 296 assessed as diameter of growth inhibition zone at 100 ug/ml after 48-96 hr by agar cup diffusion method; details: read-out: DIZ
# Candida albicans [3] = assay: Antimicrobial activity against Candida albicans MTCC 227 assessed as diameter of growth inhibition zone at 100 ug/ml after 48-96 hr by agar cup diffusion method; details: read-out: DIZ
# Penicillium [4] = assay: Antimicrobial activity against Penicillium wild strain assessed as diameter of growth inhibition zone at 50 ug/ml after 48-96 hr by agar cup diffusion method; details: read-out: DIZ
# Pseudomonas aeruginosa [5] = assay: Antimicrobial activity against Pseudomonas aeruginosa MTCC 1688 assessed as diameter of growth inhibition zone at 100 ug/ml after 18-24 hr by agar cup diffusion method; details: read-out: DIZ
# Klebsiella pneumoniae [6] = assay: Antimicrobial activity against Klebsiella pneumoniae MTCC 109 assessed as diameter of growth inhibition zone at 100 ug/ml after 18-24 hr by agar cup diffusion method; details: read-out: DIZ
# Aspergillus clavatus [7] = assay: Antimicrobial activity against Aspergillus clavatus MTCC 1323 assessed as diameter of growth inhibition zone at 50 ug/ml after 48-96 hr by agar cup diffusion method; details: read-out: DIZ
# Staphylococcus aureus [8] = assay: Antimicrobial activity against Staphylococcus aureus MTCC 96 by agar cup diffusion method
# Candida albicans [9] = assay: Antimicrobial activity against Candida albicans MTCC 227 assessed as diameter of growth inhibition zone at 25 ug/ml after 48-96 hr by agar cup diffusion method; details: read-out: DIZ
# Trichophyton rubrum [10] = assay: Antimicrobial activity against Trichophyton rubrum MTCC 296 assessed as diameter of growth inhibition zone at 50 ug/ml after 48-96 hr by agar cup diffusion method; details: read-out: DIZ
# Aspergillus clavatus [11] = assay: Antimicrobial activity against Aspergillus clavatus MTCC 1323 assessed as diameter of growth inhibition zone at 25 ug/ml after 48-96 hr by agar cup diffusion method; details: read-out: DIZ
# Pseudomonas aeruginosa [12] = assay: Antimicrobial activity against Pseudomonas aeruginosa MTCC 1688 assessed as diameter of growth inhibition zone at 50 ug/ml after 18-24 hr by agar cup diffusion method; details: read-out: DIZ
# Trichophyton rubrum [13] = assay: Antimicrobial activity against Trichophyton rubrum MTCC 296 assessed as diameter of growth inhibition zone at 250 ug/ml after 48-96 hr by agar cup diffusion method; details: read-out: DIZ
# Pseudomonas aeruginosa [14] = assay: Antimicrobial activity against Pseudomonas aeruginosa MTCC 1688 assessed as diameter of growth inhibition zone at 250 ug/ml after 18-24 hr by agar cup diffusion method; details: read-out: DIZ
# Klebsiella pneumoniae [15] = assay: Antimicrobial activity against Klebsiella pneumoniae MTCC 109 assessed as diameter of growth inhibition zone at 25 ug/ml after 18-24 hr by agar cup diffusion method; details: read-out: DIZ
# Pseudomonas aeruginosa [16] = assay: Antimicrobial activity against Pseudomonas aeruginosa MTCC 1688 by agar cup diffusion method
# Escherichia coli [17] = assay: Antimicrobial activity against Escherichia coli MTCC 443 assessed as diameter of growth inhibition zone at 50 ug/ml after 18-24 hr by agar cup diffusion method; details: read-out: DIZ
# Staphylococcus aureus [18] = assay: Antimicrobial activity against Staphylococcus aureus MTCC 96 assessed as diameter of growth inhibition zone at 50 ug/ml after 18-24 hr by agar cup diffusion method; details: read-out: DIZ
# Staphylococcus aureus [19] = assay: Antimicrobial activity against Staphylococcus aureus MTCC 96 assessed as diameter of growth inhibition zone at 25 ug/ml after 18-24 hr by agar cup diffusion method; details: read-out: DIZ
# Streptococcus pyogenes [20] = assay: Antimicrobial activity against Streptococcus pyogenes MTCC 442 assessed as diameter of growth inhibition zone at 25 ug/ml after 18-24 hr by agar cup diffusion method; details: read-out: DIZ
# Candida albicans [21] = assay: Antimicrobial activity against Candida albicans MTCC 227 assessed as diameter of growth inhibition zone at 50 ug/ml after 48-96 hr by agar cup diffusion method; details: read-out: DIZ
# Aspergillus clavatus [22] = assay: Antimicrobial activity against Aspergillus clavatus MTCC 1323 assessed as diameter of growth inhibition zone at 100 ug/ml after 48-96 hr by agar cup diffusion method; details: read-out: DIZ
# Penicillium [23] = assay: Antimicrobial activity against Penicillium wild strain assessed as diameter of growth inhibition zone at 25 ug/ml after 48-96 hr by agar cup diffusion method; details: read-out: DIZ
# Streptococcus pyogenes [24] = assay: Antimicrobial activity against Streptococcus pyogenes MTCC 442 assessed as diameter of growth inhibition zone at 250 ug/ml after 18-24 hr by agar cup diffusion method; details: read-out: DIZ
# Escherichia coli [25] = assay: Antimicrobial activity against Escherichia coli MTCC 443 assessed as diameter of growth inhibition zone at 25 ug/ml after 18-24 hr by agar cup diffusion method; details: read-out: DIZ
# Aspergillus clavatus [26] = assay: Antimicrobial activity against Aspergillus clavatus MTCC 1323 assessed as diameter of growth inhibition zone at 250 ug/ml after 48-96 hr by agar cup diffusion method; details: read-out: DIZ
# Klebsiella pneumoniae [27] = assay: Antimicrobial activity against Klebsiella pneumoniae MTCC 109 by agar cup diffusion method
# Penicillium [28] = assay: Antimicrobial activity against Penicillium wild strain assessed as diameter of growth inhibition zone at 100 ug/ml after 48-96 hr by agar cup diffusion method; details: read-out: DIZ
# Penicillium [29] = assay: Antimicrobial activity against Penicillium wild strain assessed as diameter of growth inhibition zone at 250 ug/ml after 48-96 hr by agar cup diffusion method; details: read-out: DIZ
# Penicillium [30] = assay: Antimicrobial activity against Penicillium wild strain by agar cup diffusion method
# Candida albicans [31] = assay: Antimicrobial activity against Candida albicans MTCC 227 by agar cup diffusion method
# Escherichia coli [32] = assay: Antimicrobial activity against Escherichia coli MTCC 443 by agar cup diffusion method
# Trichophyton rubrum [33] = assay: Antimicrobial activity against Trichophyton rubrum MTCC 296 by agar cup diffusion method
# Streptococcus pyogenes [34] = assay: Antimicrobial activity against Streptococcus pyogenes MTCC 442 by agar cup diffusion method
# Klebsiella pneumoniae [35] = assay: Antimicrobial activity against Klebsiella pneumoniae MTCC 109 assessed as diameter of growth inhibition zone at 250 ug/ml after 18-24 hr by agar cup diffusion method; details: read-out: DIZ
# Streptococcus pyogenes [36] = assay: Antimicrobial activity against Streptococcus pyogenes MTCC 442 assessed as diameter of growth inhibition zone at 100 ug/ml after 18-24 hr by agar cup diffusion method; details: read-out: DIZ
# Escherichia coli [37] = assay: Antimicrobial activity against Escherichia coli MTCC 443 assessed as diameter of growth inhibition zone at 100 ug/ml after 18-24 hr by agar cup diffusion method; details: read-out: DIZ
# Candida albicans [38] = assay: Antimicrobial activity against Candida albicans MTCC 227 assessed as diameter of growth inhibition zone at 250 ug/ml after 48-96 hr by agar cup diffusion method; details: read-out: DIZ
# Staphylococcus aureus [39] = assay: Antimicrobial activity against Staphylococcus aureus MTCC 96 assessed as diameter of growth inhibition zone at 250 ug/ml after 18-24 hr by agar cup diffusion method; details: read-out: DIZ
# Aspergillus clavatus [40] = assay: Antimicrobial activity against Aspergillus clavatus MTCC 1323 by agar cup diffusion method
# Streptococcus pyogenes [41] = assay: Antimicrobial activity against Streptococcus pyogenes MTCC 442 assessed as diameter of growth inhibition zone at 50 ug/ml after 18-24 hr by agar cup diffusion method; details: read-out: DIZ
# Escherichia coli [42] = assay: Antimicrobial activity against Escherichia coli MTCC 443 assessed as diameter of growth inhibition zone at 250 ug/ml after 18-24 hr by agar cup diffusion method; details: read-out: DIZ
# Staphylococcus aureus [43] = assay: Antimicrobial activity against Staphylococcus aureus MTCC 96 assessed as diameter of growth inhibition zone at 100 ug/ml after 18-24 hr by agar cup diffusion method; details: read-out: DIZ
# Klebsiella pneumoniae [44] = assay: Antimicrobial activity against Klebsiella pneumoniae MTCC 109 assessed as diameter of growth inhibition zone at 50 ug/ml after 18-24 hr by agar cup diffusion method; details: read-out: DIZ
# Trichophyton rubrum [45] = assay: Antimicrobial activity against Trichophyton rubrum MTCC 296 assessed as diameter of growth inhibition zone at 25 ug/ml after 48-96 hr by agar cup diffusion method; details: read-out: DIZ
smiles,measurement,setting,value
O=C(/C=C/c1ccccc1O)C1C(=O)NC(=S)NC1=O,zone of inhibition at 25 µg/mL,Pseudomonas aeruginosa [1],11 mm
same,zone of inhibition at 100 µg/mL,Trichophyton rubrum [2],21 mm
same,zone of inhibition at 100 µg/mL,Candida albicans [3],22 mm
same,zone of inhibition at 50 µg/mL,Penicillium [4],19 mm
same,zone of inhibition at 100 µg/mL,Pseudomonas aeruginosa [5],17 mm
same,zone of inhibition at 100 µg/mL,Klebsiella pneumoniae [6],15 mm
same,zone of inhibition at 50 µg/mL,Aspergillus clavatus [7],19 mm
same,MBC,Staphylococcus aureus [8],500 µg/mL
same,MIC,Staphylococcus aureus [8],500 µg/mL
same,zone of inhibition at 25 µg/mL,Candida albicans [9],17 mm
same,zone of inhibition at 50 µg/mL,Trichophyton rubrum [10],21 mm
same,zone of inhibition at 25 µg/mL,Aspergillus clavatus [11],18 mm
same,zone of inhibition at 50 µg/mL,Pseudomonas aeruginosa [12],13 mm
same,zone of inhibition at 250 µg/mL,Trichophyton rubrum [13],22 mm
same,zone of inhibition at 250 µg/mL,Pseudomonas aeruginosa [14],19 mm
same,zone of inhibition at 25 µg/mL,Klebsiella pneumoniae [15],12 mm
same,MBC,Pseudomonas aeruginosa [16],250 µg/mL
same,MIC,Pseudomonas aeruginosa [16],250 µg/mL
same,zone of inhibition at 50 µg/mL,Escherichia coli [17],15 mm
same,zone of inhibition at 50 µg/mL,Staphylococcus aureus [18],13 mm
same,zone of inhibition at 25 µg/mL,Staphylococcus aureus [19],11 mm
same,zone of inhibition at 25 µg/mL,Streptococcus pyogenes [20],13 mm
same,zone of inhibition at 50 µg/mL,Candida albicans [21],19 mm
same,zone of inhibition at 100 µg/mL,Aspergillus clavatus [22],20 mm
same,zone of inhibition at 25 µg/mL,Penicillium [23],18 mm
same,zone of inhibition at 250 µg/mL,Streptococcus pyogenes [24],17 mm
same,zone of inhibition at 25 µg/mL,Escherichia coli [25],13 mm
same,zone of inhibition at 250 µg/mL,Aspergillus clavatus [26],22 mm
same,MBC,Klebsiella pneumoniae [27],250 µg/mL
same,MIC,Klebsiella pneumoniae [27],200 µg/mL
same,zone of inhibition at 100 µg/mL,Penicillium [28],22 mm
same,zone of inhibition at 250 µg/mL,Penicillium [29],23 mm
same,MFC,Penicillium [30],> 1000 µg/mL
same,MIC,Penicillium [30],> 1000 µg/mL
same,MFC,Candida albicans [31],> 1000 µg/mL
same,MIC,Candida albicans [31],1000 µg/mL
same,MBC,Escherichia coli [32],200 µg/mL
same,MIC,Escherichia coli [32],125 µg/mL
same,MFC,Trichophyton rubrum [33],> 1000 µg/mL
same,MIC,Trichophyton rubrum [33],> 1000 µg/mL
same,MBC,Streptococcus pyogenes [34],200 µg/mL
same,MIC,Streptococcus pyogenes [34],125 µg/mL
same,zone of inhibition at 250 µg/mL,Klebsiella pneumoniae [35],17 mm
same,zone of inhibition at 100 µg/mL,Streptococcus pyogenes [36],16 mm
same,zone of inhibition at 100 µg/mL,Escherichia coli [37],16 mm
same,zone of inhibition at 250 µg/mL,Candida albicans [38],24 mm
same,zone of inhibition at 250 µg/mL,Staphylococcus aureus [39],19 mm
same,MFC,Aspergillus clavatus [40],> 1000 µg/mL
same,MIC,Aspergillus clavatus [40],> 1000 µg/mL
same,zone of inhibition at 50 µg/mL,Streptococcus pyogenes [41],15 mm
same,zone of inhibition at 250 µg/mL,Escherichia coli [42],17 mm
same,zone of inhibition at 100 µg/mL,Staphylococcus aureus [43],17 mm
same,zone of inhibition at 50 µg/mL,Klebsiella pneumoniae [44],13 mm
same,zone of inhibition at 25 µg/mL,Trichophyton rubrum [45],18 mm
